Compound `Cl.Clc1ccc2c(Nc3ccc4c(c3)OCCO4)ncnc2c1` has a melting point of 304 to 306 °C.
Compound `CC(=O)Nc1nc2c(Nc3ncnc4cc(Cl)ccc34)cccc2s1` [Example 2, N-[4-(7-Chloro-quinazolin-4-ylamino)-benzothiazol-2-yl]-acetamide] has a melting point of 229.8 °C.
For `FC(F)(F)c1ccc(Nc2ncnc3c2CCN(c2ncccc2C(F)(F)F)C3)cn1` [Example 10, (6-Trifluoromethyl-pyridin-3-yl)-[7-(3-trifluoromethyl-pyridin-2-yl)-5,6,7,8-tetrahydro-pyrido[3,4-d]pyrimidin-4-yl]-amine], the melting point was 144.5 to 150 °C.
`CC(C)(C)c1ccc(Oc2ncnc3cc(-c4ncccc4C(F)(F)F)ccc23)cc1` [Example 17, 4-(4-tert-Butyl-phenoxy)-7-(3-trifluoromethyl-pyridin-2-yl)-quinazoline] gave a melting point of 162 to 163 °C.

Reference: patent US20050165032A1, “Vanilloid receptor ligands and their use in treatments” (priority 2004, published 2005)
